± gives the expanded uncertainty stated by the source.
conditions: Crystal; DTA

| Compound | Normal melting temperature [°C] |
| --- | --- |
| CCCCCCCCCCCC(=O)O [dodecanoic acid] | 44.92 ± 0.5 |
| CCCCCCCCCCCCCCCC(=O)O [hexadecanoic acid] | 64.07 ± 0.5 |
| CCCCCCCC(=O)O [octanoic acid] | 16.48 ± 0.5 |

Second part, the compound after the results:

| Normal melting temperature [°C] | Compound |
| --- | --- |
| 32.31 ± 0.5 | CCCCCCCCCC(=O)O [decanoic acid] |
| 70.83 ± 0.5 | CCCCCCCCCCCCCCCCCC(=O)O [octadecanoic acid] |
| 55.73 ± 0.5 | CCCCCCCCCCCCCC(=O)O [tetradecanoic acid] |
